Measured values reported in US5338726A, “Endothelin converting enzyme inhibitors” (Abbott Laboratories, priority 1992, dated 1994).
Non-standard residues stand in square brackets, D forms with d. Residues, ends and D or L forms follow the SMILES beside them. *: point of attachment. Sta = CC(C)C[C@H](N)[C@@H](O)CC(=O)O; Isovaleryl = CC(C)CC(=O)*

tested on: solubilized endothelin converting enzyme (P3 from rat lung); test: Endothelin converting enzyme activity of solubilized enzyme with protease inhibitors; type: biochemical; details: at 40 mM; solubilized ECE (P3 from rat lung)
Description: (§1) Rat lung plasma membranes were prepared and assayed for endothelin converting enzyme activity as previously described (Biochem. Biophys. Res. Commun. 171 1291 (1990)).
The enzyme has an apparent molecular mass of 90 KD as estimated by SDS-PAGE or gel filtration and appears to be a single peptide protein. […] The enzyme may exist as isozymes with pIs at 6.2 and 6.3. […] The endothelin converting enzyme activity in active Mono Q fractions was inhibited by pepstatin A with an IC50 of 5 nM. The-endothelin converting enzyme activity of solubilized endothelin converting enzyme (P3 from rat lung) is not inhibited at 40 mM by TLCK, aprotinin, PMSF, E-64, bestatin, phosphoramidon or thiorphan. The endothelin converting enzyme activity of active Mono Q fractions was stimulated by divalent metal cations in the order of Mn^+2 ≥Zn^+2 >Ca^+2 >Mg^+2 ≥Ba^+2 =Co^+2.

Row | Compound | inhibition of endothelin converting enzyme activity
1 | Cc1ccc(S(=O)(=O)NC(CCCCN)C(=O)CCl)cc1 (centres unmarked) [TLCK] | not inhibited
2 | CC(C)C[C@H](NC(=O)[C@H]1O[C@@H]1C(=O)O)C(=O)NCCCCN=C(N)N [Example E-64, E-64] | not inhibited
3 | O=S(=O)(F)Cc1ccccc1 [PMSF] | not inhibited
4 | O=C(O)CNC(=O)C(CS)Cc1ccccc1 (centres unmarked) [thiorphan] | not inhibited
5 | aprotinin | not inhibited

Continued, values first:

Row | inhibition of endothelin converting enzyme activity | Compound
6 | not inhibited | CC(C)C[C@H](NP(=O)(O)O[C@@H]1O[C@@H](C)[C@H](O)[C@@H](O)[C@H]1O)C(=O)N[C@@H](Cc1c[nH]c2ccccc12)C(=O)O [phosphoramidon]
7 | not inhibited | CC(C)C[C@H](NC(=O)[C@@H](O)[C@H](N)Cc1ccccc1)C(=O)O [bestatin]

target: endothelin converting enzyme (active Mono Q fractions of rat lung plasma membranes); test: Endothelin converting enzyme activity in active Mono Q fractions; type: biochemical; details: read-out: IC50 for inhibition of endothelin converting enzyme activity
Description: as §1
Rat lung plasma membranes (400 mg) were solubilized by stirring at 4° C. for 45 minutes in 50 ml of 20 mM Tris-HCl, pH 7.7 containing 2 mM dithiothreitol and 46 mM NOG (Buffer C). The unsolubilized materials were removed by centrifugation at 60,000×g for 30 minutes. Solubilized materials were injected onto a Mono Q HR 10/10 column (Pharmacia) and eluted with concentration gradients of 0-1M NaCl in 240 ml of Buffer C at 4 ml/minute. (Endothelin converting enzyme active fractions were eluted from 0.07 to 0.14 M NaCl). Absorbance at 280 nm was monitored by a LKB 2150 UVICORD SD monitor. Fractions were analyzed for endothelin converting enzyme activity and by SDS-PAGE. Protein content was determined by the Bio-Rad Protein Assay kit.
The enzyme has an apparent molecular mass of 90 KD as estimated by SDS-PAGE or gel filtration and appears to be a single peptide protein. […] The enzyme may exist as isozymes with pIs at 6.2 and 6.3. […] The endothelin converting enzyme activity in active Mono Q fractions was inhibited by pepstatin A with an IC50 of 5 nM. […]

Row | Compound | IC50
8 | CC(C)CC(=O)N[C@H](C(=O)N[C@H](C(=O)N[C@@H](CC(C)C)[C@@H](O)CC(=O)N[C@@H](C)C(=O)N[C@@H](CC(C)C)[C@@H](O)CC(=O)O)C(C)C)C(C)C [pepstatin A] (Isovaleryl-VV[Sta]A[Sta]-OH) | 5 nM
